Results from patent US20060014740A1 (priority 2003, published 2006).
Counter-ions that a name gives are not always drawn. Like-named read-outs stand apart in the source and are kept apart here.

How the values were obtained:
[1] = tested on: RH7777 rat hepatoma cells; assay: SRB cytotoxicity assay, RH7777 control cell line; assay type: cell-based; conditions: for IC50: Rattus norvegicus, RH7777, read-out: IC50 RH7777
Description: (§1) For in vitro cytotoxicity screening, 1000 to 5000 cells were plated into each well of 96-well plates depending on growth rate, and exposed to different concentrations of a test compound for 96 h in three to five replicates. All the compounds were dissolved in dimethyl sulfoxide at 5 to 20 mM, and diluted to desired concentrations in complete culture medium. Cell numbers at the end of the drug treatment were measured by the SRB assay (Gududuru et al., “Synthesis and Biological Evaluation of Novel Cytotoxic Phospholipids for Prostate Cancer,” Bioorg. Med. Chem. Lett. 14:4919-4923 (2004); Rubinstein et at., “Comparison of in vitro Anticancer-Drug-Screening Data Generated with a Tetrazolium Assay Versus a Protein Assay Against a Diverse Panel of Human Tumor Cell Lines,” J. Naatl, Cancer Inst. 82:1113-1118 (1990), each of which is hereby incorporated by reference in its entirety). Briefly, the cells were fixed with 10% of trichloroacetic acid, stained with 0.4% SRB, and the absorbances at 540 nm was measured using a plate reader (DYNEX Technologies, Chantilly, Va.).
(§2) The antiproliferative activity of all the synthesized compounds was evaluated against five human prostate cancer cell lines and in RH7777 cells (negative control) using the sulforhodamine B (SRB) assay (see description in Example 5 above).
(§3) The chosen cell lines represent different basal levels of active AKT and LPL receptor expression (discussed later). Cells were exposed to a wide range of concentrations (0 to 100 μM) of the indicated compound for 96 h. Cell numbers at the end of treatment were measured using the sulforhodamine B (SRB) assay^5.
(§4) Cells were exposed to a wide range of concentrations (0 to 100 μM) of the particular compound for 96 h in 96 well plates. Cells were fixed with 10% trichloroacetic acid, washed five times with water. The plates were air dried overnight and fixed cells were stained with SRB solution. The cellular protein-bound SRB was measured at 540 nm using a plate reader. Cell numbers at the end of the treatment were measured.
as §4, with “96-well” for “96 well”, “calculated as a percentage of untreated control.” for “measured.”

[2] = tested on: DU-145 human prostate cancer cells; assay: SRB cytotoxicity assay, DU-145; assay type: cell-based; conditions: Homo sapiens, DU-145, read-out: IC50 DU-145, 96 h
Description: as §1, §2, §3, §4
as §4, with “96-well” for “96 well”, “calculated as a percentage of untreated control.” for “measured.”

[3] = tested on: PC-3 human prostate cancer cells; assay: SRB cytotoxicity assay, PC-3; assay type: cell-based; conditions: Homo sapiens, 96 h, read-out: IC50 PC-3
Description: as §1, §2, §3, §4
as §4, with “96-well” for “96 well”, “calculated as a percentage of untreated control.” for “measured.”

[4] = tested on: LNCaP human prostate cancer cells; assay: SRB cytotoxicity assay, LNCaP; assay type: cell-based; conditions: Homo sapiens, LNCaP, 96 h, read-out: IC50 LNCaP
Description: as §1, §2, §3, §4
as §4, with “96-well” for “96 well”, “calculated as a percentage of untreated control.” for “measured.”

[5] = tested on: PPC-1 human prostate cancer cells; assay: SRB cytotoxicity assay, PPC-1; assay type: cell-based; conditions: for IC50: Homo sapiens, PPC-1
Description: (§5) Dr. Mitchell Steiner at University of Tennessee Health Science Center, kindly provided PPG-1 and TSU-PrI cells.
as §1, §2, §3, §4
as §4, with “96-well” for “96 well”, “calculated as a percentage of untreated control.” for “measured.”

[6] = tested on: TSU-Pr1 human prostate cancer cells; assay: SRB cytotoxicity assay, TSU-Pr1; assay type: cell-based; conditions: Homo sapiens, TSU-Pr1, 96 h, read-out: IC50 TSU-Pr1
Description: as §5, §1, §2, §3, §4
as §4, with “96-well” for “96 well”, “calculated as a percentage of untreated control.” for “measured.”

[7] = tested on: human breast cancer cell line (MCF-7); assay: SRB cytotoxicity assay, MCF-7; assay type: cell-based; conditions: Homo sapiens, MCF7, read-out: IC50 MCF-7
Description: as §1
(§6) In vitro cytotoxicity assay was performed by the same sulforhodamine B (SRB) assay (described above). The compounds shown in Table 8 below where tested for activity against the breast cancer and ovarian cancer cell lines.
as §3, §4

[8] = tested on: CaOv-3 human ovarian cancer cell line; assay: SRB cytotoxicity assay, CaOv-3; assay type: cell-based; conditions: Homo sapiens, Caov-3; Table 8
Description: as §1, §6

[9] = tested on: OVCAR-3 human ovarian cancer cell line; assay: SRB cytotoxicity assay, OVCAR-3; assay type: cell-based; conditions: Homo sapiens, OVCAR-3; Table 8
Description: as §1, §6

[10] = tested on: SKOv-3 human ovarian cancer cell line; assay: SRB cytotoxicity assay, SKOv-3; assay type: cell-based; conditions: Homo sapiens, SK-OV-3; Table 8
Description: as §1, §6

[11] = Table 8, breast cancer cell line
[12] = Table 3, control cell line, 96 h
[13] = Table 3, 96 h, read-out: IC50 PPC-1
[14] = Table 4, control cell line, 96 h
[15] = Table 4, 96 h, read-out: IC50 PPC-1

melting point | SMILES | IC50 [7, 11] | IC50 [8] | IC50 [9] | IC50 [10] | IC50 [1, 12] | IC50 ([2]; Table 3) | IC50 ([3]; Table 3) | IC50 ([4]; Table 3) | IC50 [5, 13] | IC50 ([6]; Table 3) | IC50 [1, 14] | IC50 ([2]; Table 4) | IC50 ([3]; Table 4) | IC50 ([4]; Table 4) | IC50 [5, 15] | IC50 ([6]; Table 4) | further results
 | CCCCCCCNC(=O)[C@@H]1CSC(c2ccccc2)N1 (mixture of isomers) [Compound 3-HCI, (2RS, 4R)-2-Phenylthiazolidine-4-carboxylic acid heptylamide Hydrochloride] | 50.3 µM | 19.2 µM | 34 µM | 47.8 µM |  |  |  |  |  |  |  |  |  |  |  |  | IC50 ([1]; Example 10 table, 0 to 100 μM for 96 h): 52.2 µM; IC50 ([2]; Example 10 table): 44.9 µM; IC50 ([3]; Example 10 table): 38.5 µM; IC50 ([4]; Example 10 table): 12.4 µM; IC50 ([5]; Example 10 table, 96 h, read-out: IC50 PPC-1): 34.7 µM; IC50 ([6]; Example 10 table): 28 µM; IC50 ([7]; Example 10 table, 96 h): 50.3 µM
 | Cl.O=C(O)[C@@H]1CSC(c2ccoc2)N1 (mixture of isomers) [Compound 12-HCI, (2RS, 4R)-2-Furan-3-yl-thiazolidine-4-carboxylic acid Hydrochloride] |  | 7.7 µM | 2.3 µM | 5.4 µM | 10.4 µM | 6.6 µM | 8.1 µM | 1.7 µM | 1.1 µM | 4.2 µM |  |  |  |  |  |  | Fold less selective against RH7777 cell line than compound 5 [1]: 3 fold
75 °C | CCCCCCCCCCCCCCCCCCNC(=O)[C@@H]1CSC(c2ccc(N(C)C)cc2)N1 (mixture of isomers) [Compound 13, (2RS, 4R)-2-(4-Dimethylamino-phenyl)-thiazolidine-4-carboxylic acid octadecylamide] | 13.5 µM |  |  |  | > 20 µM | 5.3 µM | 6 µM | 1.6 µM | 1.1 µM | 3 µM |  |  |  |  |  |  | 
 | CCCCCCCCCCCCCCCCCCNC(=O)[C@@H]1CSC(c2cc(OC)c(OC)c(OC)c2)N1 (mixture of isomers) [Compound 17-HCI, (2RS, 4R)-2-(3,4,5-Trimethoxy-phenyl)-thiazolidine-4-carboxylic acid octadecylamide Hydrochloride] |  | 4.4 µM | 1.4 µM | 2.7 µM | 11.4 µM | 3.9 µM | 4 µM | 0.82 µM |  | 2.4 µM |  |  |  |  |  |  | 
 | CCCCCCCCCCCCCCCCCCNC(=O)[C@@H]1CSC(c2ccc(NC(C)=O)cc2)N1.Cl (mixture of isomers) [Compound 18-HCI, (2RS, 4R)-2-(4-Acetylamino-phenyl)-thiazolidine-4-carboxylic acid octadecylamide Hydrochloride] |  | 4.9 µM | 2 µM | 2.6 µM |  |  |  |  |  |  | 21.1 µM | 3.1 µM | 5.6 µM | 1.3 µM | 0.55 µM | 0.94 µM | Selectivity in PPC-1 cells compared to RH7777 cells [5]: 38 fold; IC50 ([5]; read-out: IC50 in PPC-1 cells): 0.55 µM
81 °C | CCCCCCCCCCCCCCCCCCNC(=O)[C@@H]1CSC(c2ccc(Br)cc2)N1 (mixture of isomers) [Compound 20, (2RS, 4R)-2-(4-Bromo-phenyl)-thiazolidine-4-carboxylic acid octadecylamide] | 16.6 µM |  |  |  |  |  |  |  |  |  | > 20 µM | 13.8 µM | 17.3 µM | 5.1 µM | 3.7 µM | 18.3 µM | 
